Measurements published in ChEMBL document CHEMBL5233262, “Anti-inflammatory activity of naturally occuring diarylheptanoids - A review” (Bioorg Med Chem, 2021).
pIC50: −log10 of the molar value. In brackets after ≈: the same amount, converted by molar mass.

Legend:
BV-2 = assay: Antiinflammatory activity in mouse BV-2 cells assessed as inhibition of LPS-induced NO production at 10 uM preincubated for 1 hrs followed by LPS stimulation and measured after 24 hrs by Griess assay; format: functional; details: time 25 hrs
RAW264.7 [1] = assay: Antiinflammatory activity in mouse RAW264.7 cells assessed as inhibition of LPS-induced TNF-alpha production; format: functional, cell-based
Mus musculus [2] = assay: Antiinflammatory activity in ICR mouse model of TPA-induced ear edema assessed as inhibition of ear inflammation at 1 mg,TOP for 30 mins followed by TPA addition and measured after 6 hrs; format: functional; details: time 390 min, 6.5 h
RAW264.7 [3] = assay: Antiinflammatory activity in mouse RAW264.7 cells assessed as inhibition of LPS-induced IL-1beta production; format: functional, cell-based
RAW264.7 [4] = assay: Antiinflammatory activity in mouse RAW264.7 cells assessed as inhibition of LPS-induced IL-6 production; format: functional, cell-based
RAW264.7 [5] = assay: Antiinflammatory activity in mouse RAW264.7 cells assessed as inhibition of LPS-induced NO production at 3 uM preincubated for 2 hrs followed by LPS stimulation and measured after 24 hrs by Griess method; format: functional; details: time 26 hrs
RAW264.7 [6] = assay: Antiinflammatory activity in mouse RAW264.7 cells assessed as inhibition of LPS-induced IL-6 production at 100 uM preincubated for 2 hrs followed by LPS stimulation and measured after 24 hrs by ELISA; format: functional; details: time 26 hrs
RAW264.7 [7] = assay: Antiinflammatory activity in mouse RAW264.7 cells assessed as inhibition of LPS-induced IL-6 production at 30 uM preincubated for 2 hrs followed by LPS stimulation and measured after 24 hrs by ELISA; format: functional; details: time 26 hrs
RAW264.7 [8] = assay: Antiinflammatory activity in mouse RAW264.7 cells assessed as inhibition of LPS-induced TNFalpha production at 30 uM preincubated for 2 hrs followed by LPS stimulation and measured after 24 hrs by ELISA; format: functional; details: time 26 hrs
RAW264.7 [9] = assay: Antiinflammatory activity in mouse RAW264.7 cells assessed as inhibition of LPS-induced NO production at 10 uM preincubated for 2 hrs followed by LPS stimulation and measured after 24 hrs by Griess method; format: functional; details: time 26 hrs
RAW264.7 [10] = assay: Antiinflammatory activity in mouse RAW264.7 cells assessed as inhibition of LPS-induced NO production at 100 uM preincubated for 2 hrs followed by LPS stimulation and measured after 24 hrs by Griess method; format: functional; details: time 26 hrs
RAW264.7 [11] = assay: Antiinflammatory activity in mouse RAW264.7 cells assessed as inhibition of LPS-induced TNFalpha production at 100 uM preincubated for 2 hrs followed by LPS stimulation and measured after 24 hrs by ELISA; format: functional; details: time 26 hrs
RAW264.7 [12] = assay: Antiinflammatory activity in mouse RAW264.7 cells assessed as inhibition of LPS-induced IL-6 production at 10 uM preincubated for 2 hrs followed by LPS stimulation and measured after 24 hrs by ELISA; format: functional; details: time 26 hrs
RAW264.7 [13] = assay: Antiinflammatory activity in mouse RAW264.7 cells assessed as inhibition of LPS-induced IL-6 production at 3 uM preincubated for 2 hrs followed by LPS stimulation and measured after 24 hrs by ELISA; format: functional; details: time 26 hrs
RAW264.7 [14] = assay: Antiinflammatory activity in mouse RAW264.7 cells assessed as inhibition of LPS-induced NO production at 30 uM preincubated for 2 hrs followed by LPS stimulation and measured after 24 hrs by Griess method; format: functional; details: time 26 hrs
RAW264.7 [15] = assay: Antiinflammatory activity in mouse RAW264.7 cells assessed as inhibition of LPS-induced TNFalpha production at 3 uM preincubated for 2 hrs followed by LPS stimulation and measured after 24 hrs by ELISA; format: functional; details: time 26 hrs
RAW264.7 [16] = assay: Antiinflammatory activity in mouse RAW264.7 cells assessed as inhibition of LPS-induced TNFalpha production at 10 uM preincubated for 2 hrs followed by LPS stimulation and measured after 24 hrs by ELISA; format: functional; details: time 26 hrs
Mus musculus [17] = assay: Antiinflammatory activity in TPA-induced ear edema ICR mouse model assessed as inhibition of ear inflammation at 1 ug, TOP for 30 mins followed by TPA addition and measured after 6 hrs; format: functional; details: dose 1 µg, time 390 min, 6.5 h
Rattus norvegicus [18] = assay: Antiinflammatory activity in Wistar rat model of carrageenan-induced paw edema assessed as reduction in paw thickness at 10 mg/kg,po and measured after 5 hrs; format: functional; design: scale not given: the % may be the effect or the level left
Zingiber officinale = assay: Inhibition of prostaglandin biosynthesis in ginger; format: functional, organism-based
RAW264.7 [19] = assay: Antiinflammatory activity against mouse RAW264.7 cells assessed as inhibition of IFN-gamma and LPS-induced COX2 production preincubated for 2 hrs followed by IFN-gamma and LPS stimulation and measured after 16 hrs by spectrophotometric analysis; format: functional, cell-based
Rattus norvegicus [20] = assay: Antiinflammatory activity in rat model of carrageenan-induced paw edema assessed as reduction in paw thickness at 10 mg/kg,ip and measured after 4 hrs; format: functional; design: scale not given: the % may be the effect or the level left
RAW264.7 [21] = assay: Antiinflammatory activity in mouse RAW264.7 cells assessed as inhibition of LPS-induced NO production; format: functional, cell-based
RAW264.7 [22] = assay: Antiinflammatory activity in mouse RAW264.7 cells assessed as inhibition of LPS-induced NO production for 24 hrs by Griess assay; format: functional, cell-based; details: RAW264.7, 24 h
J774.1 [23] = assay: Cytotoxicity in mouse J774.1 cells assessed as reduction in cell viability at 100 microg/ml; format: toxicity, cell-based; details: at 100 µg/mL
J774.1 [24] = assay: Antiinflammatory activity in mouse J774.1 cells assessed as inhibition of LPS-induced NO production at 100 microg/ml; format: functional
J774.1 [25] = assay: Antiinflammatory activity in mouse J774.1 cells assessed as inhibition of LPS-induced NO production incubated for 48 hrs by Griess reagent based analysis; format: functional, cell-based; details: Mus musculus, J774.1, 48 h
RAW264.7 [26] = assay: Antiinflammatory activity in mouse RAW264.7 cells assessed as inhibition of LPS-induced NF-kappaB expression preincubated for 1 hr followed by LPS stimulation and measured after 18 hrs by qPCR analysis; format: functional, cell-based
RAW264.7 [27] = assay: Antiinflammatory activity in mouse RAW264.7 cells assessed as inhibition of LPS-induced NO production incubated for 24 hrs by Griess reagent based analysis; format: functional, cell-based; details: RAW264.7, 24 h
RAW264.7 [28] = assay: Antiinflammatory activity in mouse RAW264.7 cells assessed as inhibition of LPS-induced TNFalpha production preincubated for 1 hr followed by LPS stimulation and measured after 18 hrs by immunoassay; format: functional, cell-based
[29] = Cytotoxicity against mouse RAW264.7 cells assessed as reduction in cell viability by MTT assay; format: toxicity, cell-based
RAW264.7 [30] = assay: Antiinflammatory activity in mouse RAW264.7 cells assessed as inhibition of LPS-induced NO production preincubated for 0.5 hrs followed by LPS stimulation and measured after 24 hrs by Griess reagent based analysis; format: functional, cell-based
Hepatocyte [31] = assay: Hepatoprotective activity against CCL4-induced rat hepatocyte toxicity assessed as decrease in TBARS level by measuring MDA formation at 1 uM preincubated for 30 mins followed by CCL4 addition and measured after 180 mins by TBARS method; format: functional; design: scale not given: the % may be the effect or the level left; details: time 210 min
Hepatocyte [32] = assay: Hepatoprotective activity against CCL4-induced rat hepatocyte toxicity assessed as decrease in TNF-alpha level at 1 uM preincubated for 30 mins followed by CCL4 addition and measured after 180 mins by ELISA; format: functional; design: scale not given: the % may be the effect or the level left; details: time 210 min
Hepatocyte [33] = assay: Hepatoprotective activity against CCL4-induced rat hepatocyte toxicity assessed as decrease in ALT level at 1 uM preincubated for 30 mins followed by CCL4 addition and measured after 180 mins by colorimetric method; format: functional; design: scale not given: the % may be the effect or the level left; details: time 210 min
Hepatocyte [34] = assay: Hepatoprotective activity against CCL4-induced rat hepatocyte toxicity assessed as decrease in IL-1beta level at 1 uM preincubated for 30 mins followed by CCL4 addition and measured after 180 mins by ELISA; format: functional; design: scale not given: the % may be the effect or the level left; details: time 210 min
RAW264.7 [35] = assay: Antiinflammatory activity in mouse RAW264.7 cells assessed as inhibition of KLA-induced TNFalpha expression at 0.06 mg/ml and measured after 24 hrs by ELISA; format: functional

Compound: COC(=O)[C@@H](N)CCCNC(=N)N[N+](=O)[O-] [L-NAME]
- inhibition at 10 µM (BV-2): 70.5%

Compound: O=c1c(O)c(-c2ccc(O)c(O)c2)oc2cc(O)cc(O)c12 [QUERCETIN]
- pIC50 (RAW264.7 [1]): 4.87
- ID50 (Mus musculus [2]): 1.6 mg
- pIC50 (RAW264.7 [3]): 4.77
- pIC50 (RAW264.7 [4]): 4.77

Compound: COc1cc2cc(c1O)-c1cc(ccc1O)CC[C@H](O)CCCC2
- pIC50 (RAW264.7 [1]): 4.71
- pIC50 (RAW264.7 [3]): 4.75
- pIC50 (RAW264.7 [4]): 4.69

Compound: COc1cc(CC[C@H](O)C[C@H](O)[C@@H](O)Cc2ccc(O)cc2)ccc1O
- inhibition at 3 µM (RAW264.7 [5]): 43%
- inhibition at 100 µM (RAW264.7 [6]): 57%
- inhibition at 30 µM (RAW264.7 [7]): 57%
- inhibition at 30 µM (RAW264.7 [8]): 39%
- inhibition at 10 µM (RAW264.7 [9]): 43%
- inhibition at 100 µM (RAW264.7 [10]): 43%
- inhibition at 100 µM (RAW264.7 [11]): 39%
- inhibition at 10 µM (RAW264.7 [12]): 57%
- inhibition at 3 µM (RAW264.7 [13]): 57%
- inhibition at 30 µM (RAW264.7 [14]): 43%
- inhibition at 3 µM (RAW264.7 [15]): 39%
- inhibition at 10 µM (RAW264.7 [16]): 39%

Compound: O=C(CCc1ccccc1)C[C@H](O)CCc1ccccc1
- ID50 (Mus musculus [17]): 2.1 µmol
- Activity (Rattus norvegicus [18]): 6.9%

Compound: COc1ccc2c(c1)c(CC(=O)O)c(C)n2C(=O)c1ccc(Cl)cc1 [INDOMETHACIN]
- ID50 (Mus musculus [17]): 0.9 µmol
- pIC50 (Zingiber officinale): 5.31
- ID50 (Mus musculus [2]): 0.3 mg
- IC50 (RAW264.7 [19]): 26.2 µg/mL (≈ 73.2 µM)
- Activity (Rattus norvegicus [20]): 55.2%
- pIC50 (RAW264.7 [21]): 4.58
- pIC50 (RAW264.7 [22]): 4.49

Compound: COc1cc(O)c([C@@H](/C=C/C[C@@H](O)CCc2ccc(O)cc2)c2ccc(O)cc2)c(O)c1C(=O)/C=C/c1ccc(O)cc1
- Activity (J774.1 [23]): 85%
- inhibition at 100 µg/mL (J774.1 [24]): 90%
- pIC50 (J774.1 [25]): 4.41

Compound: COc1cc(CC[C@@H](C[C@H](O)[C@@H](O)Cc2ccc(O)cc2)O[C@@H]2OC[C@@H](O)[C@H](O)[C@H]2O)ccc1O
- inhibition at 3 µM (RAW264.7 [5]): 39%
- inhibition at 100 µM (RAW264.7 [6]): 43%
- inhibition at 30 µM (RAW264.7 [7]): 43%
- inhibition at 30 µM (RAW264.7 [8]): 36%
- inhibition at 10 µM (RAW264.7 [9]): 39%
- inhibition at 100 µM (RAW264.7 [10]): 39%
- inhibition at 100 µM (RAW264.7 [11]): 36%
- inhibition at 10 µM (RAW264.7 [12]): 43%
- inhibition at 3 µM (RAW264.7 [13]): 43%
- inhibition at 30 µM (RAW264.7 [14]): 39%
- inhibition at 3 µM (RAW264.7 [15]): 36%
- inhibition at 10 µM (RAW264.7 [16]): 36%

Compound: COc1ccc2cc1Oc1ccc(c(O)c1OC)CCCC[C@H](O)CC2
- pIC50 (RAW264.7 [26]): 5.03
- pIC50 (RAW264.7 [27]): 4.74
- pIC50 (RAW264.7 [28]): 4.65

Compound: COc1cc([C@H]2C[C@H](O)C[C@@H]([C@@H](O)Cc3ccc(O)cc3)O2)ccc1O
- inhibition at 3 µM (RAW264.7 [5]): 34%
- inhibition at 100 µM (RAW264.7 [6]): 40%
- inhibition at 30 µM (RAW264.7 [7]): 40%
- inhibition at 30 µM (RAW264.7 [8]): 41%
- inhibition at 10 µM (RAW264.7 [9]): 34%
- inhibition at 100 µM (RAW264.7 [10]): 34%
- inhibition at 100 µM (RAW264.7 [11]): 41%
- inhibition at 10 µM (RAW264.7 [12]): 40%
- inhibition at 3 µM (RAW264.7 [13]): 40%
- inhibition at 30 µM (RAW264.7 [14]): 34%
- inhibition at 3 µM (RAW264.7 [15]): 41%
- inhibition at 10 µM (RAW264.7 [16]): 41%

Compound: O=C(/C=C/c1ccc(O)c(O)c1)CC/C=C/c1ccc(O)c(O)c1
- pIC50 [29]: 5.05
- pIC50 (RAW264.7 [30]): 5.54

Compound: COc1cc(O)c([C@H](/C=C/C[C@@H](O)CCc2ccc(O)cc2)c2ccc(O)cc2)c(O)c1C(=O)/C=C/c1ccc(O)cc1
- Activity (J774.1 [23]): 85%
- inhibition at 100 µg/mL (J774.1 [24]): 90%
- pIC50 (J774.1 [25]): 4.08

Compound: COc1cc(CCC(=O)CCCCc2ccc(O)c(O)c2)ccc1O
- Activity (Hepatocyte [31]): 60.4%
- Activity (Hepatocyte [32]): 43.8%
- Activity (Hepatocyte [33]): 56.3%
- Activity (Hepatocyte [34]): 58.8%

Compound: O=C(CCc1ccccc1)C[C@@H](O)CCc1ccccc1
- inhibition at 60 µg/mL (RAW264.7 [35]): 35%
